Experimental data taken from patent publication US11667636B2, “Modulators of Mas-related G-protein receptor X2 and related products and methods” (Escient Pharmaceuticals, Inc., priority 2020, dated 2023).

target: T1, human MRGPRX2 (Homo sapiens, UniProt Q96LB1); experiment: MRGPRX2 Activity: IP-One HTRF antagonist assay in CHO cells stably expressing human MRGPRX2, versus Cortistatin-14; assay type: cell-based; conditions: versus 0.3 uM Cortistatin-14 agonist, IP-1 HTRF, read-out: MRGPR2 Antagonist Activity
T1 construct: expressed in transfected cells
T1 sequence (Q96LB1 1-330): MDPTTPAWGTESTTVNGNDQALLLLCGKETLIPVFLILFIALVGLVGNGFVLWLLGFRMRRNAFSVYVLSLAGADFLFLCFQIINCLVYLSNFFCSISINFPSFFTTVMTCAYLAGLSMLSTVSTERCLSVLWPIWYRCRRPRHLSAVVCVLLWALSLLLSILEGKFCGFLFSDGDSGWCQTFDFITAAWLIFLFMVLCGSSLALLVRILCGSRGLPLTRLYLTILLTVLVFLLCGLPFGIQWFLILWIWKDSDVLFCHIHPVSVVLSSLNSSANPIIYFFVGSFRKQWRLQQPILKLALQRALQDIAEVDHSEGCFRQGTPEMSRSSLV
Method: CHO cells stably transfected to express human MRGPRX2 were maintained in an incubator at 37° C. with 5% CO2 and grown in F12 (HAM) media with 10% fetal bovine serum (FBS), 1% Glutamax, 1% penicillin/streptomycin, 800 μg/mL Geneticin (G418), and 300 μg/mL Hygromycin B. Cells were plated in a 384-well assay plate at 20,000 cells per well in 12 μL of Opti-MEM and kept in an incubator overnight. On the day of the assay, compounds solubilized at 10 mM in DMSO were added as a 10-point curve (30 uM final top concentration with 1:3 serial dilutions) using a Tecan D300E digital dispenser. Agonists were diluted in assay buffer (final concentrations of 5.7 mM Tris-HCl, 43 mM NaCl, 50 mM LiCl, pH=8) and 2 μL of the agonist Cortistatin-14 (CPC Scientific, catalog CORT-002) are added to each well. Final concentrations of agonists were 0.3 μM Cortistatin-14. Final concentrations of DMSO were kept consistent across the plate. Plates were incubated in the dark for 1 hr at 37° C. and then for 1 hr at room temperature. IP-1 standards and HTRF detection reagents were added according to the IP-One-Gq Kit purchased from Cisbio (part number 62IPAPEJ) and incubated in the dark for 1 hr at room temperature. The plate was read on a Molecular Devices SpectraMax iD5 plate reader. The HTRF ratio was calculated from the raw data and graphed using GraphPad Prism to calculate an IC50 value for each compound.
The activity ranges are denoted as follows: “+++++” denotes antagonist activity <50 nM; “++++” denotes antagonist activity between 51 and 100 nM; “+++” denotes activity between 101 and 500 nM; “++” denotes activity between 501 and 1000 nM; and “+” denotes activity >1000 nM

IC50 | Compound
101 to 500 nM | CNc1ccc(C(=O)N[C@H]2CC[C@@H](Nc3cccc4nc(C#N)cn34)CC2)cc1 [2-259]
101 to 500 nM | O=C(N[C@H]1CC[C@@H](Nc2cccc3nc(C(F)F)cn23)CC1)c1ccc(F)nc1 [2-254]
51 to 100 nM | O=C(N[C@H]1CC[C@@H](Nc2cccc3nc(C(F)(F)F)cn23)CC1)c1ccn2ccnc2c1 [2-208]
< 50 nM | O=C(N[C@H]1CC[C@@H](Nc2cccc3nc(C(F)(F)F)cn23)CC1)c1cn(CC(F)(F)F)nc1C(F)F [Example 9, 3-(difluoromethyl)-1-(2,2,2-trifluoroethyl)-N-[4-[[2-(trifluoromethyl)imidazo[1,2-a]pyridin-5-yl]amino]cyclohexyl]pyrazole-4-carboxamide]
101 to 500 nM | O=C(N[C@H]1CC[C@@H](Nc2cccc3nc(C(F)(F)F)cn23)CC1)c1cnc2nccn2c1 [2-125]
< 50 nM | O=C(N[C@H]1CC[C@@H](Nc2cccc3nc(C(F)(F)F)cn23)CC1)c1cn(C(F)F)nc1Cl [2-297]
< 50 nM | Nc1nn(CC(F)F)cc1C(=O)N[C@H]1CC[C@@H](Nc2cccc3nc(C(F)(F)F)cn23)CC1 [Example 6, 3-amino-1-(2,2-difluoroethyl)-N-[4-[[2-(trifluoromethyl)imidazo[1,2-a]pyridin-5 yl]amino]cyclohexyl]pyrazole-4-carboxamide]
< 50 nM | O=C(N[C@H]1CC[C@@H](Nc2cccc3nc(C(F)(F)F)cn23)CC1)c1ccc(F)cc1 [2-157]
< 50 nM | Cn1cc(C(=O)N[C@H]2CC[C@@H](Nc3cccc4nc(C(F)F)cn34)CC2)c(NCC(F)F)n1 [2-288]
101 to 500 nM | O=C(N[C@H]1CC[C@@H](Nc2cccc3nc(C(F)F)cn23)CC1)c1cccc2[nH]c(C(F)F)nc12 [2-151]
< 50 nM | Cn1cc(C(=O)N[C@H]2CC[C@@H](Nc3cccc4nc(C(F)(F)F)cn34)CC2)c2c(Cl)cccc21 [2-291]
101 to 500 nM | CCCn1cc(C(=O)N[C@H]2CC[C@@H](Nc3cccc4nc(C(F)F)cn34)CC2)cn1 [2-255]
501 to 1000 nM | COc1ccc(C(=O)N[C@@H]2CCC[C@H](Nc3cccc4oc(C(F)(F)F)nc34)C2)cc1 [Example 4, 4-methoxy-N-[(1R,3S)-3-[[2-(trifluoromethyl)-1,3-benzoxazol-4-yl]amino]cyclohexyl]benzamide]
< 50 nM | O=C(N[C@H]1CC[C@@H](Nc2cccc3nc(C(F)(F)F)cn23)CC1)c1c[nH]nc1C(F)(F)F [2-177]
< 50 nM | O=C(N[C@H]1CC[C@@H](Nc2cccc3nc(C(F)(F)F)cn23)CC1)c1cn(CC(F)(F)F)nc1Cl [Example 12, 3-chloro-1-(2,2,2-trifluoroethyl)-N-((1s,4s)-4-((2-(trifluoromethyl)imidazo[1,2-a]pyridin-5-yl)amino)cyclohexyl)-1H-pyrazole-4-carboxamide]
101 to 500 nM | O=C(N[C@H]1CC[C@@H](Nc2cccc3nc(C(F)F)cn23)CC1)c1ccc(Cl)cc1Cl [2-275]
< 50 nM | O=C(N[C@H]1CC[C@@H](Nc2cccc3nc(C(F)(F)F)cn23)CC1)c1ccc(N2CCOCC2)cc1 [2-8]
< 50 nM | Cc1n[nH]c2c(C(=O)N[C@H]3CC[C@@H](Nc4cccc5nc(C(F)(F)F)cn45)CC3)cccc12 [2-183]
101 to 500 nM | O=C(N[C@H]1CC[C@@H](Nc2cccc3nc(C(F)F)cn23)CC1)c1ccc(F)cc1Cl [2-149]
< 50 nM | O=C(N[C@H]1CC[C@@H](Nc2cccc3nc(C(F)(F)F)cn23)CC1)c1ccccc1NCC(F)F [2-188]
< 50 nM | Cc1cc(C(=O)N[C@H]2CC[C@@H](Nc3cccc4nc(C(F)F)cn34)CC2)cn1C(F)F [2-221]
< 50 nM | O=C(N[C@H]1CC[C@@H](Nc2cccc3nc(C(F)(F)F)cn23)CC1)c1cccc2[nH]ccc12 [2-232]
< 50 nM | O=C(N[C@H]1CC[C@@H](Nc2cccc3nc(C(F)(F)F)cn23)CC1)c1ccc(NCC(F)F)cc1 [2-180]

IC50 | Compound
> 1000 nM | COc1ccc(C(=O)N[C@@H]2CCC[C@H](Nc3cccc4sc(C(C)=O)cc34)C2)cc1 [1-4]
< 50 nM | CCn1cc(C(=O)N[C@H]2CC[C@@H](Nc3cccc4nc(C(F)(F)F)cn34)CC2)c(Cl)n1 [2-293]
101 to 500 nM | CCOc1cc(C(=O)N[C@H]2CC[C@@H](Nc3cccc4nc(C(F)(F)F)cn34)CC2)ccn1 [2-15]
51 to 100 nM | COc1ccc(C(=O)N[C@H]2CC[C@@H](Nc3cccc4nc(C(F)F)cn34)CC2)c(Cl)c1 [2-148]
101 to 500 nM | Cn1ncc(C(=O)N[C@H]2CC[C@@H](Nc3cccc4nc(C(F)(F)F)cn34)CC2)c1C1CC1 [2-245]
101 to 500 nM | O=C(N[C@H]1CC[C@@H](Nc2cccc3nc(C(F)(F)F)cn23)CC1)c1cnc[nH]1 [2-11]
101 to 500 nM | Cc1n[nH]c2c(C(=O)N[C@H]3CC[C@@H](Nc4cccc5nc(C(F)(F)F)cn45)CC3)ccnc12 [2-247]
101 to 500 nM | N#Cc1cccc(C(=O)N[C@H]2CC[C@@H](Nc3cccc4sc(C(F)(F)F)cc34)CC2)c1 [Example 5, 3-cyano-N-((1 S,4S)-4-((2-(trifluoromethyl)benzo[b]thiophen-4-yl)amino)cyclohexyl)benzamide]
51 to 100 nM | O=C(N[C@H]1CC[C@@H](Nc2cccc3nc(C(F)F)cn23)CC1)c1cn(C(F)(F)F)nc1Cl [2-295]
< 50 nM | O=C(N[C@H]1CC[C@@H](Nc2cccc3nc(C(F)F)cn23)CC1)c1c[nH]nc1NCC(F)F [2-194]
< 50 nM | O=C(N[C@H]1CC[C@@H](Nc2cccc3nc(C(F)(F)F)cn23)CC1)c1c[nH]nc1C1CC1 [2-141]
51 to 100 nM | O=C(N[C@H]1CC[C@@H](Nc2cccc3sc(C(F)F)cc23)CC1)c1ccc(F)cc1 [1-13]
< 50 nM | Cn1cc(C(=O)N[C@H]2CC[C@@H](Nc3cccc4nc(C(F)(F)F)cn34)CC2)c(N)n1 [2-246]
< 50 nM | Nc1nn(CC(F)(F)F)cc1C(=O)N[C@H]1CC[C@@H](Nc2cccc3nc(C(F)(F)F)cn23)CC1 [Example 7, 3-amino-1-(2,2,2-trifluoroethyl)-N-[4-[[2-(trifluoromethyl)imidazo[1,2-a]pyridin-5-yl]amino]cyclohexyl]pyrazole-4-carboxamide]
101 to 500 nM | COc1ccc(C(=O)N[C@@H]2CCC[C@H](Nc3cccc4sc(C(F)(F)F)cc34)C2)cc1 [Example 2, 4-methoxy-N-((1R,3S)-3-((2-(trifluoromethyl)benzo[b]thiophen-4-yl)amino)cyclohexyl)benzamide]
> 1000 nM | COc1ccc(C(=O)N[C@H]2CC[C@@H](Nc3cccc4sc(C(F)(F)F)nc34)CC2)cc1 [1-17]
101 to 500 nM | CCc1cc(C(=O)N[C@H]2CC[C@@H](Nc3cccc4nc(C(F)(F)F)cn34)CC2)nn1CC [2-190]
< 50 nM | O=C(N[C@H]1CC[C@@H](Nc2cccc3nc(C(F)(F)F)cn23)CC1)c1ccn(CC(F)F)n1 [2-135]
< 50 nM | CC(C)S(=O)(=O)Nc1ccc(C(=O)N[C@H]2CC[C@@H](Nc3cccc4nc(C(F)(F)F)cn34)CC2)cc1 [2-203]
< 50 nM | O=C(N[C@H]1CC[C@@H](Nc2cccc3nc(C(F)(F)F)cn23)CC1)c1cc2cc(F)cnc2[nH]1 [2-120]
< 50 nM | CC(C)(F)Cn1cc(C(=O)N[C@H]2CC[C@@H](Nc3cccc4nc(C(F)F)cn34)CC2)c(Cl)n1 [2-257]
< 50 nM | NS(=O)(=O)c1ccc(C(=O)N[C@H]2CC[C@@H](Nc3cccc4nc(C(F)(F)F)cn34)CC2)cc1 [2-204]
< 50 nM | CN(C)c1ccc(C(=O)N[C@H]2CC[C@@H](Nc3cccc4nc(C#N)cn34)CC2)cc1 [2-258]
